Where a name gives a salt, the structure may show the parent alone.
Biological target: T1, human TLR9 (hTLR9) (Homo sapiens, UniProt Q9NR96)
T1 construct: expressed in transfected cells
T1 sequence (Q9NR96 26-1032): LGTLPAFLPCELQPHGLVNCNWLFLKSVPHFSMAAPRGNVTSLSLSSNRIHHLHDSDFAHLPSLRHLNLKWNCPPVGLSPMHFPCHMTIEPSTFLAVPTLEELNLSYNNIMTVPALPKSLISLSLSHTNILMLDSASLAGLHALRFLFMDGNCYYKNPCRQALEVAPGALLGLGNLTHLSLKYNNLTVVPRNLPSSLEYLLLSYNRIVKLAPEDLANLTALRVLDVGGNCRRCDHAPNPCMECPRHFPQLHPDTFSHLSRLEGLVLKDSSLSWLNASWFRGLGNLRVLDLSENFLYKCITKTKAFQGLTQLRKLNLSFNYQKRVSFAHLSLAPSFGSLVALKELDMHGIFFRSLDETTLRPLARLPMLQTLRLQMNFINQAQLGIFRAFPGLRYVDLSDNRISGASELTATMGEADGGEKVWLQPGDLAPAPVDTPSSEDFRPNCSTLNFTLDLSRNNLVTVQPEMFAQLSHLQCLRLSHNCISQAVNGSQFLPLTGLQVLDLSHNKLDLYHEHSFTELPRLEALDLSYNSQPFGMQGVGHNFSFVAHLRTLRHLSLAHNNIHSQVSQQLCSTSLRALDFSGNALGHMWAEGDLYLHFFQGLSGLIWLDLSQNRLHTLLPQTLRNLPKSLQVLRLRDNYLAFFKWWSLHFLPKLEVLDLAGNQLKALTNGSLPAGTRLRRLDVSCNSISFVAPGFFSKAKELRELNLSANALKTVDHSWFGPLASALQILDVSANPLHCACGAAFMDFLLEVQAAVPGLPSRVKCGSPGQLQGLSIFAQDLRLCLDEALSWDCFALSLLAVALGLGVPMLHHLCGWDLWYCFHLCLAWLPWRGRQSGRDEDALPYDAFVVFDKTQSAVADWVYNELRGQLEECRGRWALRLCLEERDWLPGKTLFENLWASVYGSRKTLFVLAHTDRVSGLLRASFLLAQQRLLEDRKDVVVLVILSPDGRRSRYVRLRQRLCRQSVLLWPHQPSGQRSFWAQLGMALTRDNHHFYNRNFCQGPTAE
Experiment: Antagonist screen, hTLR9-NFκB-293 cells, 6× NF-κB-luciferase reporter, with EC50 of CpG ODN 2006
Assay type: cell-based
Settings: FIG. 1, graph
Experimental: Candidate small molecules for initial screening were obtained from a commercially available library of 880 off-patent small molecules selected for structural diversity and proven bioavailability in humans (Prestwick Chemical Library). […] Results were measured as fold induction over baseline luciferase activity measured in the absence of ODN 2006 and compared to fold induction over baseline in the presence of the EC50 concentration of ODN 2006 alone. […] Additional screening was performed in like manner using additional small molecules selected from another library or specifically prepared for this purpose.
The method is described in greater detail as follows. The cells for each individual cell clone (hTLR3-NFκB-293, hTLR7-NFκB-293, hTLR8-NFκB-293 and hTLR9-NFκB-293) were counted and seeded one day before the stimulation at 1.5×10^4 cells per well in 96-well cell culture plates. To become adherent the cells were incubated after seeding overnight at 37° C. in 5% CO2 humidified air.
The screen for each compound was performed at the same time for all of the receptors TLR3, TLR7, TLR8 and TLR9. Up to fifteen test compounds, each assayed in duplicate at each of three different final concentrations (0.5 μg/ml, 5 μg/ml, and 50 μg/ml), were used for 16 h cell stimulation on a single multiwell culture plate. A 4× final concentration master plate was created to prepare the different test compounds before they were added to the cells.
Controls were added as duplicates individually for each cell clone on the cell culture plate. Positive controls were used as follows (final concentrations): 50 μg/ml poly(I:C) for hTLR3-NFκB-293; 8 μM resiquimod (R848) for hTLR7-NFκB-293; 30 μM R848 for hTLR8-NFκB-293; and 2.5 μM CpG-ODN 2006 for hTLR9-NFκB-293. Media alone was used as negative control. After addition of controls and small molecules, the cell clones were additionally stimulated with the EC50 concentration of the appropriate receptor-specific ligand.
The mean value of wells H2 and H5 (each with cells and EC50 concentration of the appropriate receptor-specific ligand) divided by the mean of wells H3 and H6 (each with cells alone) yielded the baseline response (i.e., fold induction of luciferase activity) to EC50 concentration of the appropriate receptor-specific ligand.
After 16 h stimulation the supernatant was removed and the cells treated with lysis buffer and stored at −80° C. before measuring.
For each screen result a graphical documentation was performed.
The baseline result (measured with addition of the EC50 concentration of the receptor-specific ligand) for each cell culture plate was measured as described above. Antagonistic effects were measured by down regulation compared to the baseline. Antagonists were scored as follows: • 13: compounds for which there was clear down regulation at 0.5 μg/ml, 5 μg/ml, and 50 μg/ml; • 12: compounds for which there was clear down regulation at 5 μg/ml and 50 μg/ml; • 11: compounds for which there was clear down regulation only at 50 μg/ml; • —: compounds for which there was no clear down regulation even at 50 μg/ml. Agonists

Molecule	inhibition of TLR9 signaling in response to CpG ODN 2006 (FIG. 1)
OCc1cc2c(cn1)[nH]c1ccccc12 [compound 878, 3-hydroxymethyl-beta-carboline]	concentration-dependent inhibition

Same assay, conditions: compound at 0.5, 5, 50 μg/ml; EC50 concentration of CpG ODN 2006; 16 h; NF-κB-luciferase

Molecule	hTLR9 (inhibitory effect, antagonist score)
C=CCc1ccccc1OC1(c2ccccc2)OC(=O)c2ccccc21 (centres unmarked) [compound 957]	12 (compounds for which there was clear down regulation at 5 μg/ml and 50 μg/ml)
NC(=O)c1cccc2c1-c1ccccc1C2 [compound 1132]	— (compounds for which there was no clear down regulation even at 50 μg/ml)
CN1CCC2C(C1)c1ccccc1N2Cc1ccccc1 (centres unmarked) [compound 455, Mebhydroline 1,5 naphtalenedisulfonate]	12 (compounds for which there was clear down regulation at 5 μg/ml and 50 μg/ml)
CN(C)CCCN1c2ccccc2Sc2ccc(Cl)cc21.Cl [compound 64, Chlorpromazinehydrochloride]	12 (compounds for which there was clear down regulation at 5 μg/ml and 50 μg/ml)
CN1Cc2c(N)cccc2C(c2ccccc2)C1.O=C(O)/C=C\C(=O)O (centres unmarked) [compound 108, Nomifensine maleate]	11 (compounds for which there was clear down regulation only at 50 μg/ml)
O=C(c1cccc2c1-c1ccccc1/C2=N\O)N1CCCCC1 [compound 1050]	12 (compounds for which there was clear down regulation at 5 μg/ml and 50 μg/ml)
CS(=O)(=O)O.OC(CCN1CCCCC1)(c1ccccc1)c1ccccc1 [compound 799, Pridinolmethanesulfonate salt]	11 (compounds for which there was clear down regulation only at 50 μg/ml)
Flunarizinehydrochloride [compound 312]	12 (compounds for which there was clear down regulation at 5 μg/ml and 50 μg/ml)
OCc1cc2c(cn1)[nH]c1ccccc12 [compound 878, 3-hydroxymethyl-beta-carboline]	12 (compounds for which there was clear down regulation at 5 μg/ml and 50 μg/ml)
O=C(O)c1ccc(C2(c3ccc(C(=O)O)cc3)OC(=O)c3ccccc32)cc1 [compound 970]	11 (compounds for which there was clear down regulation only at 50 μg/ml)
CNCCCN1c2ccccc2CCc2ccccc21.Cl [compound 343, Desipraminehydrochloride]	12 (compounds for which there was clear down regulation at 5 μg/ml and 50 μg/ml)
CCN(CC)CCCN(CC(=O)C1c2ccc(Cl)cc2NC(=O)c2ccccc21)C(=O)c1ccccc1 (centres unmarked) [compound 1013]	11 (compounds for which there was clear down regulation only at 50 μg/ml)
Clc1ccccc1C(c1ccccc1)(c1ccccc1)n1ccnc1 [compound 267, Clotrimazole]	— (compounds for which there was no clear down regulation even at 50 μg/ml)
CN1CCN(C(c2ccccc2)c2ccccc2)CC1.Cl [compound 510, Cyclizine hydrochloride]	11 (compounds for which there was clear down regulation only at 50 μg/ml)
Trifluoperazinedihydrochloride [compound 313]	11 (compounds for which there was clear down regulation only at 50 μg/ml)
Cc1cc(OC(=O)C2C3CCCCC32)c(C(C)C)cc1C1(c2cc(C(C)C)c(OC(=O)C3C4CCCCC43)cc2C)OC(=O)c2ccccc21 (centres unmarked) [compound 974]	— (compounds for which there was no clear down regulation even at 50 μg/ml)

Molecule	hTLR9 (inhibitory effect, antagonist score)
CN(C)CCC=C1c2ccccc2CCc2ccccc21.Cl [compound 74, Amitryptilinehydrochloride]	12 (compounds for which there was clear down regulation at 5 μg/ml and 50 μg/ml)
CCOCCOC(=O)c1cc([N+](=O)[O-])cc2c1-c1c(cc([N+](=O)[O-])cc1[N+](=O)[O-])C2=C(C#N)C#N [compound 1241]	— (compounds for which there was no clear down regulation even at 50 μg/ml)
O=C1c2ccccc2C(=O)c2c1ccc1c(=O)n(C3CCCCC3)[nH]c21 [compound 1015]	11 (compounds for which there was clear down regulation only at 50 μg/ml)
COC(=O)C1=CO[C@@H](C)[C@@H]2CN3CCc4c([nH]c5ccccc45)[C@@H]3C[C@H]12 [compound 593, Tetrahydroalstonine]	11 (compounds for which there was clear down regulation only at 50 μg/ml)
CCOC(=O)Oc1c(OC)cc(C(=O)O[C@@H]2C[C@@H]3CN4CCc5c([nH]c6cc(OC)ccc56)[C@H]4C[C@@H]3[C@H](C(=O)OC)[C@H]2OC)cc1OC [compound 564, Syrosingopine]	13 (compounds for which there was clear down regulation at 0.5 μg/ml, 5 μg/ml, and 50 μg/ml)
CC[C@]12CCCN3CCc4c(n(c5ccccc45)C(=O)C1)[C@@H]32 [compound 607, Eburnamonine]	— (compounds for which there was no clear down regulation even at 50 μg/ml)
Cc1nccc2c1[nH]c1ccccc12 [compound 620, Harmane hydrochloride]	12 (compounds for which there was clear down regulation at 5 μg/ml and 50 μg/ml)
COC(=O)c1cccc(C(O)(c2ccccc2)c2ccccc2)c1S(=O)(=O)C(C)(C)C [compound 1187]	— (compounds for which there was no clear down regulation even at 50 μg/ml)
CCCCOC(=O)c1cc([N+](=O)[O-])cc2c1-c1cc(CO)c([NH+]([O-])O)cc1C2=C(C#N)C#N (centres unmarked) [compound 939]	11 (compounds for which there was clear down regulation only at 50 μg/ml)
COC(=O)c1cccc2c1-c1ccccc1/C2=N/O [compound 904]	13 (compounds for which there was clear down regulation at 0.5 μg/ml, 5 μg/ml, and 50 μg/ml)
O=C1Nc2ccccc2Oc2ccc([N+](=O)[O-])cc21 [compound 1352]	11 (compounds for which there was clear down regulation only at 50 μg/ml)
Prochlorperazinedimaleate [compound 399]	12 (compounds for which there was clear down regulation at 5 μg/ml and 50 μg/ml)
COCCCNC(=O)c1ccc2c(c1N)C(=O)c1ccccc1C2=O [compound 1337]	12 (compounds for which there was clear down regulation at 5 μg/ml and 50 μg/ml)
O=C(O)c1cccc2c1/C(=N/O)c1ccccc1-2 [compound 918]	— (compounds for which there was no clear down regulation even at 50 μg/ml)
COC(=O)[C@H]1[C@H]2C[C@@H]3c4[nH]c5cc(OC)ccc5c4CCN3C[C@H]2C[C@@H](OC(=O)c2cc(OC)c(OC)c(OC)c2)[C@@H]1OC [compound 875, Reserpine]	12 (compounds for which there was clear down regulation at 5 μg/ml and 50 μg/ml)

— US7410975B2, “Small molecule toll-like receptor (TLR) antagonists” (Coley Pharmaceutical Group, Inc., priority 2003, dated 2008)
